The text below walks through data of PubChem BioAssay (NCI).

Structures are written as SMILES. Several values for one entry are separate records, joined by “and”; a condition that tells them apart may be missing. Equal values may be shown once.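 Step 1: Grow cells in 96-well plates. Step 2: Expose to compound for 48 hours at 5 concentrations. Step 3: Interpolate endpoints linearly; if unreached, use highest concentration. The concentration for 50% growth inhibition is given as GI50. TGI is the concentration that stops growth completely.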

Some test systems named below: RPMI-8226 leukemia; SK-MEL-28 melanoma; IGROV1 ovarian; OVCAR-4 ovarian; HOP-92 NSCLC; OVCAR-8 ovarian; MOLT-4 leukemia; SK-MEL-2 melanoma; UO-31 renal; SF-295 CNS.
Holding throughout (assay): growth of human tumour cells (NCI), 48 h

Consider `Nc1ncnc2c1ncn2C1OC(COS(N)(=O)=O)C(O)C1O` (centres undefined), for which the GI50 in the test with RPMI-8226 leukemia was 0.00287 µM and 0.0283 µM; in the test on SK-MEL-28 melanoma, 0.00225 µM and 0.0221 µM; with IGROV1 ovarian, 0.00291 µM and 0.0248 µM; in the test with OVCAR-4 ovarian, 0.00118 µM; in the test on OVCAR-8 ovarian, less than 0.001 µM; with MOLT-4 leukemia it was 0.0219 µM. In addition, the TGI in the test with RPMI-8226 leukemia was 0.265 µM and 0.0661 µM; in the test with SK-MEL-28 melanoma, 0.00521 µM and 0.0509 µM; in the test on IGROV1 ovarian it was 0.00781 µM and 0.065 µM; in the test on OVCAR-4 ovarian, 0.00718 µM and 0.0357 µM; in the test on HOP-92 NSCLC it was 0.00619 µM and 0.0611 µM; in the test on OVCAR-8 ovarian it was 0.00394 µM. Moreover, in the test on MOLT-4 leukemia, the TGI was found to be 0.109 µM.
As for `[N-]=[N+]=NCCCn1c2c(c3ccc([N+](=O)[O-])cc3c1=O)C(=O)c1cc3c(cc1-2)OCO3`, the GI50 in the test on SK-MEL-28 melanoma was 14.4 µM; in the test with IGROV1 ovarian, 0.165 µM; in the test on SK-MEL-2 melanoma, 2.58 µM; in the test on UO-31 renal, less than 0.0335 µM; in the test on OVCAR-4 ovarian, 4.83 µM; with HOP-92 NSCLC, 2.56 µM. The GI50 in the test with SF-295 CNS is less than 0.012 µM; in the test on OVCAR-8 ovarian it was less than 0.0446 µM; in the test with MOLT-4 leukemia, less than 0.0374 µM. For the same compound, the TGI was more than 100 µM in the test on SK-MEL-28 melanoma; 1.46 µM with IGROV1 ovarian; 22.3 µM in the test on SK-MEL-2 melanoma; 2.28 µM with UO-31 renal; more than 100 µM in the test on OVCAR-4 ovarian; more than 33.5 µM in the test on HOP-92 NSCLC. The values for the TGI in the test with SF-295 CNS and with OVCAR-8 ovarian were less than 0.0428 µM and 16.6 µM, respectively.
In the case of `CC1=CC(C)(c2c[nH]c3ccccc23)CC(C)(C)c2c1[nH]c1ccccc21` (centres undefined), the TGI in the test with RPMI-8226 leukemia was determined as 38.9 µM; with SK-MEL-28 melanoma it was 30.1 µM; in the test on IGROV1 ovarian, 36 µM; with UO-31 renal it was 27.3 µM; in the test on OVCAR-4 ovarian it was 27.7 µM; in the test with SF-295 CNS, 32.6 µM. Moreover, the figures for the TGI in the test with OVCAR-8 ovarian and with MOLT-4 leukemia were 29.8 µM and 27.6 µM, respectively.
As for `Nc1nonc1-c1nc2ccccc2n1Cc1ccc(F)cc1`, the GI50 with SK-MEL-28 melanoma is 7.89 µM; with IGROV1 ovarian it was 5.25 µM; with UO-31 renal, 5.72 µM; with OVCAR-4 ovarian, more than 100 µM; with HOP-92 NSCLC it was 4.04 µM; in the test with SF-295 CNS it was 13.1 µM. Further, the GI50 with OVCAR-8 ovarian was more than 100 µM; in the test on MOLT-4 leukemia it was 5.5 µM. For the same compound, the TGI with SK-MEL-28 melanoma is more than 100 µM; with IGROV1 ovarian, more than 100 µM; in the test on UO-31 renal, more than 100 µM; in the test on OVCAR-4 ovarian, more than 100 µM; in the test on HOP-92 NSCLC, 36.7 µM; in the test on SF-295 CNS it was more than 100 µM. For the same compound, the TGI with OVCAR-8 ovarian and with MOLT-4 leukemia was more than 100 µM throughout.
In the case of `Cc1cc(N(CCC#N)CCC#N)ccc1N=Nc1cc(Cl)ccc1Cl`, the TGI in the test on RPMI-8226 leukemia is 34.7 µM; in the test on SK-MEL-28 melanoma, 21.1 µM; in the test on IGROV1 ovarian, 28.6 µM; with SK-MEL-2 melanoma, 33.8 µM; with UO-31 renal it was 30.9 µM; with OVCAR-4 ovarian, 10.3 µM. Further, the TGI with SF-295 CNS and with MOLT-4 leukemia was 34.9 µM each time.
For the compound `Cc1coc2c1C(=O)C(=O)c1ccccc1-2`, the TGI with SK-MEL-28 melanoma was determined as 3.09 µM; in the test with IGROV1 ovarian, 3.44 µM; in the test on SK-MEL-2 melanoma it was 3.78 µM; with UO-31 renal, 10.4 µM; with OVCAR-4 ovarian it was 3.22 µM; with HOP-92 NSCLC, 1.28 µM. For the same compound, the TGI with SF-295 CNS was found to be 3.03 µM; with OVCAR-8 ovarian, 1.25 µM; in the test with MOLT-4 leukemia, 6.03 µM.
Take `Cc1ccc(S(=O)(=O)N2CCCSCCSCCCN(S(=O)(=O)c3ccc(C)cc3)CC2)cc1`: the TGI in the test on RPMI-8226 leukemia, in the test on SK-MEL-28 melanoma, in the test on IGROV1 ovarian, in the test on SK-MEL-2 melanoma, in the test with UO-31 renal and with OVCAR-4 ovarian was more than 100 µM each time. Further, the TGI with SF-295 CNS, in the test on OVCAR-8 ovarian and with MOLT-4 leukemia was more than 100 µM throughout.
Take `COc1cc(Cl)cc(-c2nn(-c3cccc(NC(=O)Nc4cccc(C(F)(F)F)c4)c3)cc2-c2ccncc2)c1`: the GI50 was 0.43 µM with RPMI-8226 leukemia; 2.53 µM in the test on SK-MEL-28 melanoma; 2.86 µM in the test on IGROV1 ovarian; 1.29 µM with SK-MEL-2 melanoma; 1.03 µM in the test with UO-31 renal; 2.54 µM in the test on OVCAR-4 ovarian. Further, the GI50 is 0.783 µM in the test with SF-295 CNS, 1.12 µM in the test with OVCAR-8 ovarian and 1.14 µM in the test on MOLT-4 leukemia. In addition, the TGI was 2.3 µM with RPMI-8226 leukemia; 12.1 µM in the test with SK-MEL-28 melanoma; 22.7 µM with IGROV1 ovarian; 3.08 µM in the test with SK-MEL-2 melanoma; 7.75 µM in the test with UO-31 renal; 38.8 µM with OVCAR-4 ovarian. In addition, the results for the TGI with SF-295 CNS, with OVCAR-8 ovarian and with MOLT-4 leukemia were 4.62 µM, 4.88 µM and 4.35 µM, respectively.
Take `CC(C)(C)OC(=O)NCCCCn1c2c(c3ccccc3c1=O)C(=O)c1ccccc1-2`: the GI50 with RPMI-8226 leukemia was 4.42 µM; in the test on SK-MEL-28 melanoma it was 38.2 µM; in the test on IGROV1 ovarian, 23 µM; with SK-MEL-2 melanoma it was 52.1 µM; in the test with UO-31 renal it was 8.29 µM; with OVCAR-4 ovarian it was 47.8 µM. Also, the GI50 in the test on SF-295 CNS was 16.5 µM; in the test on OVCAR-8 ovarian, 8.75 µM; in the test with MOLT-4 leukemia, 4.32 µM. Also, the TGI in the test on RPMI-8226 leukemia, in the test with SK-MEL-28 melanoma, in the test on IGROV1 ovarian, with SK-MEL-2 melanoma, in the test with UO-31 renal and with OVCAR-4 ovarian was more than 100 µM throughout. The figures for the TGI with SF-295 CNS, in the test with OVCAR-8 ovarian and in the test on MOLT-4 leukemia were 56.1 µM, 30.3 µM and more than 100 µM, respectively.
In the case of `O=c1[nH]c2cc([N+](=O)[O-])ccc2nc1/C(=N/Nc1ccccc1)C(O)c1ccco1` (centres undefined), the TGI in the test with RPMI-8226 leukemia, in the test on IGROV1 ovarian, in the test with SK-MEL-2 melanoma, with UO-31 renal, in the test on OVCAR-4 ovarian and in the test with SF-295 CNS was more than 100 µM each time. The TGI in the test with OVCAR-8 ovarian and in the test on MOLT-4 leukemia was more than 100 µM each time.
Consider `CCOC(=O)C(Cc1c[nH]c2cc(N(CCO)CCO)ccc12)(NC(C)=O)C(=O)OCC`, for which the GI50 was 65.3 µM with RPMI-8226 leukemia; 636 µM in the test with SK-MEL-28 melanoma; 445 µM in the test with IGROV1 ovarian; 673 µM in the test on UO-31 renal; more than 1000 µM in the test on OVCAR-4 ovarian; more than 1000 µM in the test on HOP-92 NSCLC. Also, the GI50 is more than 1000 µM with SF-295 CNS and 697 µM in the test on OVCAR-8 ovarian. Also, the TGI in the test on SK-MEL-28 melanoma, with IGROV1 ovarian, with UO-31 renal, in the test on OVCAR-4 ovarian, with HOP-92 NSCLC and in the test on SF-295 CNS was more than 1000 µM each time. The compound further yielded a TGI with OVCAR-8 ovarian of more than 1000 µM.
